Some test systems named below: MD-MDA-231 Cell Line; EuMyc Lymphoma Cell Line; T47D Cell Line; SKBR Cell Line; Raji Cell Line; 70Z/3 Cell Line; Jurkat Cell Line; 9E10 Cell Line; HS578 Cell Line; MCF7 Cell Line.
Common to all, as to assay: cell viability loss in various cell types – MTT absorbance, EuMyc, HS578, 70Z/3, T47D, SKBR, late-stage follow-up (AID 504928)
What all share (conditions): tumor cell line panel viability, at 10 µM, active compounds read low

Active and inactive are the calls of the source. How the calls were made is not given here.

Take `O=c1cc(N2CCN(c3cccc(Cl)c3)CC2)[nH]c(=O)n1C1CCCCC1`: the viability fold change in the experiment with MD-MDA-231 Cell Line was 0.11; with EuMyc Lymphoma Cell Line, 0.63 (inactive); with T47D Cell Line, 0.19; with SKBR Cell Line, 0.19; with Raji Cell Line, 0.19; in the experiment on 70Z/3 Cell Line, 0.5. Besides, the viability fold change in the experiment on Jurkat Cell Line is 0.19; in the experiment on 9E10 Cell Line, 0.8 (inactive); in the experiment with HS578 Cell Line it was 0.16; in the experiment with MCF7 Cell Line, 0.17.

These data come from PubChem BioAssay AID504928 (The Scripps Research Institute Molecular Screening Center, 2011).
